Assay results: patent publication US20260217701A1, “SELECTIVE BET INHIBITORS AND USES THEREOF” (Tay Therapeutics Limited, priority 2022, published 2026)
Several values for one entry are separate records, joined by “and”; a condition that tells them apart may be missing. Equal values may be shown once. Read-outs that look alike come from different tables or passages of the source.

How the values were obtained:
[1] = UUO study: serum urea levels; format: in vivo; conditions: UUO rats
Excerpt: Tables 30A-30B and FIG. 27A depict serum urea levels in sham rats (black bar), UUO rats treated with vehicle (grey bar), and UUO rats treated with Compound A (white bar).

[2] = CIA study: pharmacokinetics / plasma concentration after oral administration; format: in vivo, Lewis rats; conditions: for concentration at 21 day: oral
[3] = CIA-induced animals, day 0, 3 mg/kg, average
[4] = CIA-induced animals, day 0, 3 mg/kg, individual test subjects
[5] = CIA-induced animals, day 21, 3 mg/kg, average
[6] = CIA-induced animals, day 21, 3 mg/kg, individual test subjects

Compound: Cn1cc(-c2ccccc2)c(-c2cn(C)c(=O)c3[nH]c(-c4cnn(C(F)(F)F)c4)cc23)cc1=O [Compound A, 6-methyl-4-(1-methyl-2-oxo-5-phenyl-1,2-dihydropyridin-4-yl)-2-(1-(trifluoromethyl)-1H-pyrazol-4-yl)-1,6-dihydro-7H-pyrrolo[2,3-c]pyridin-7-one]
- Serum urea levels, difference between experimental groups ([1]; 10 mg/kg): No significant differences
- Serum Urea (Mean + S.D.) ([1]; 10 mg/kg QD): 5.67 ± 0.71 mmol/L
- Serum Urea ([1]; Compound A 10 mg/kg QD, individual animals, 10 mg/kg): 5.72 mmol/L and 5.03 mmol/L and 5.64 mmol/L and 6.28 mmol/L and 5.22 mmol/L and 4.77 mmol/L and 6.97 mmol/L and 5.71 mmol/L
- AUClast/D (Mean) [2, 3]: 509 mg·h/mL
- AUC—%Extrap—obs (Mean) [2, 3]: 14.0%
- AUCInf [2, 4]: 1393 ng·h/mL and 1454 ng·h/mL
- AUClast [2, 4]: 1250 ng·h/mL and 1264 ng·h/mL
- AUC—%Extrap—obs [2, 4]: 18.6% and 10.3% and 13.1%
- Cmax [2, 4]: 77.9 ng/mL and 82.6 ng/mL
- MRTInf—obs [2, 4]: 10.7 h and 11.8 h
- T1/2 [2, 4]: 7.03 h and 7.60 h
- AUClast/D (Mean) [2, 5]: 246 mg·h/mL
- AUC—%Extrap—obs (Mean) [2, 5]: 17.3%
- MRTlnf—obs (Mean) [2, 5]: 13.5 h
- AUCInf [2, 6]: 1059 ng·h/mL and 985 ng·h/mL
- AUClast [2, 6]: 826 ng·h/mL and 784 ng·h/mL
- AUC—%Extrap—obs [2, 6]: 9.67% and 22.0% and 20.4%
- Cmax [2, 6]: 51.2 ng/mL and 45.7 ng/mL
- MRTInf—obs [2, 6]: 15.5 h and 14.9 h
- T1/2 [2, 6]: 10.3 h and 9.68 h
- Plasma Concentration ([2]; Day 21, CIA rats, 1 mg/kg): 12.8 ng/mL and 14.5 ng/mL and 13.9 ng/mL and 14.3 ng/mL and 21.1 ng/mL and 20.6 ng/mL
- Plasma Concentration ([2]; Day 21, CIA rats, 10 mg/kg): 181 ng/mL and 240 ng/mL and 230 ng/mL and 264 ng/mL and 174 ng/mL and 255 ng/mL and 248 ng/mL
- concentration at 21 day ([2]; Lewis, rat, plasma, 1 mg/kg, Day 21, CIA rats, 1 mg/kg, read-out: Plasma Concentration): 13 ng/mL
- concentration at 21 day ([2]; Lewis, rat, plasma, 1 mg/kg, Group 5 (CIA + Compound A 1 mg/kg), read-out: Day 21 Mean Plasma Concentration): 15.5 ng/mL
- concentration at 21 day ([2]; Lewis, rat, plasma, 3 mg/kg, Group 6 (CIA + Compound A 3 mg/kg), read-out: Day 21 Mean Plasma Concentration): 49.5 ng/mL
- concentration at 21 day ([2]; Lewis, rat, plasma, 10 mg/kg, Day 21, CIA rats, 10 mg/kg, read-out: Plasma Concentration): 232 ng/mL
- concentration at 21 day ([2]; Lewis, rat, plasma, 10 mg/kg, Group 7 (CIA + Compound A 10 mg/kg), read-out: Day 21 Mean Plasma Concentration): 221 ng/mL
- AUC(0-inf) ([2]; Lewis, rat, plasma, po, 3 mg/kg, CIA-induced animals, day 0, 3 mg/kg, average, read-out: AUCInf (Mean)): 1800 ng·h/mL
- AUC(0-t) ([2]; Lewis, rat, plasma, po, 3 mg/kg, CIA-induced animals, day 0, 3 mg/kg, average, read-out: AUClast (Mean)): 1530 ng·h/mL
- Cmax ([2]; Lewis, rat, plasma, po, 3 mg/kg, CIA-induced animals, day 0, 3 mg/kg, average, read-out: Cmax (Mean)): 95 ng/mL
- MRT inf ([2]; Lewis, rat, plasma, po, 3 mg/kg, CIA-induced animals, day 0, 3 mg/kg, average, read-out: MRTInf—obs (Mean)): 12.2 h
- half-life ([2]; Lewis, rat, plasma, po, 3 mg/kg, CIA-induced animals, day 0, 3 mg/kg, average, read-out: T1/2 (Mean) (converted)): 7.94 h
- Tmax ([2]; Lewis, rat, plasma, po, 3 mg/kg, CIA-induced animals, day 0, 3 mg/kg, average, read-out: Tmax (Mean)): 5.33 h
- AUC(0-inf) ([2]; Lewis, rat, plasma, po, 3 mg/kg, CIA-induced animals, day 0, 3 mg/kg, individual test subjects, read-out: AUCInf): 2540 ng·h/mL
- AUC(0-t) ([2]; Lewis, rat, plasma, po, 3 mg/kg, CIA-induced animals, day 0, 3 mg/kg, individual test subjects, read-out: AUClast): 2070 ng·h/mL
- Cmax ([2]; Lewis, rat, plasma, po, 3 mg/kg, CIA-induced animals, day 0, 3 mg/kg, individual test subjects, read-out: Cmax): 123 ng/mL
- MRT inf ([2]; Lewis, rat, plasma, po, 3 mg/kg, CIA-induced animals, day 0, 3 mg/kg, individual test subjects, read-out: MRTInf—obs): 14.1 h
- half-life ([2]; Lewis, rat, plasma, po, 3 mg/kg, CIA-induced animals, day 0, 3 mg/kg, individual test subjects, read-out: T1/2 (converted)): 9.19 h
- Tmax ([2]; Lewis, rat, plasma, po, 3 mg/kg, CIA-induced animals, day 0, 3 mg/kg, individual test subjects, read-out: Tmax): 6 h
- AUC(0-t) ([2]; Lewis, rat, plasma, po, 3 mg/kg, CIA-induced animals, day 21, 3 mg/kg, average, read-out: AUClast (Mean)): 738 ng·h/mL
- Cmax ([2]; Lewis, rat, plasma, po, 3 mg/kg, CIA-induced animals, day 21, 3 mg/kg, average, read-out: Cmax (Mean)): 48.4 ng/mL
- half-life ([2]; Lewis, rat, plasma, po, 3 mg/kg, CIA-induced animals, day 21, 3 mg/kg, average, read-out: T1/2 (Mean) (converted)): 8.9 h
- Tmax ([2]; Lewis, rat, plasma, po, 3 mg/kg, CIA-induced animals, day 21, 3 mg/kg, average, read-out: Tmax (Mean)): 5.33 h
- AUC(0-inf) ([2]; Lewis, rat, plasma, po, 3 mg/kg, CIA-induced animals, day 21, 3 mg/kg, individual test subjects, read-out: AUCInf): 668 ng·h/mL
- AUC(0-t) ([2]; Lewis, rat, plasma, po, 3 mg/kg, CIA-induced animals, day 21, 3 mg/kg, individual test subjects, read-out: AUClast): 604 ng·h/mL
- Cmax ([2]; Lewis, rat, plasma, po, 3 mg/kg, CIA-induced animals, day 21, 3 mg/kg, individual test subjects, read-out: Cmax): 48.3 ng/mL
- MRT inf ([2]; Lewis, rat, plasma, po, 3 mg/kg, CIA-induced animals, day 21, 3 mg/kg, individual test subjects, read-out: MRTInf—obs): 10.1 h
- half-life ([2]; Lewis, rat, plasma, po, 3 mg/kg, CIA-induced animals, day 21, 3 mg/kg, individual test subjects, read-out: T1/2 (converted)): 6.79 h
